According to ChEMBL document CHEMBL2157907, “Optimization of anti-Trypanosoma cruzi oxadiazoles leads to identification of compounds with efficacy in infected mice” (Bioorg Med Chem, 2012):
Activity calls are given as the source filed them. The calls are words filed in the database; no cut-off is given here.

Experiments:
[1] = tested on: Trypanosoma cruzi; assay: Antitrypanosomal activity against epimastigotes of Trypanosoma cruzi Y after 5 days; type: functional, organism-based; conditions: 120 h
[2] = tested on: Trypanosoma cruzi; assay: Antitrypanosomal activity against trypomastigotes of Trypanosoma cruzi Y infected in BALB/c mouse assessed as reduction of parasite level in blood at 100 mg/kg, po administered after 5 days of postinfection qd for 5 days; type: functional, organism-based; design: dose 100 mg/kg
[3] = tested on: Trypanosoma cruzi; assay: Antitrypanosomal activity against trypomastigotes of Trypanosoma cruzi Y infected in rhesus monkey LLC-MK2 cells assessed parasite viability after 24 hrs; type: functional, organism-based; conditions: LLC-MK2, 24 h
[4] = target: Cruzipain (Trypanosoma cruzi) (UniProt P25779); assay: Inhibition of Trypanosoma cruzi cruzain using Z-Phe-Arg-aminomethylcoumarin as substrate at 100 uM after 10 mins
[5] = Cytotoxicity against BALB/c mouse splenocytes after 24 hrs by [3H]-thymidine incorporation assay; type: cell-based, Splenocyte; conditions: read-out: LC50
[6] = target: Cruzipain (Trypanosoma cruzi, UniProt P25779); assay: Inhibition of Trypanosoma cruzi cruzain using Z-Phe-Arg-aminomethylcoumarin as substrate after 10 mins
Cruzipain, sequence (P25779 whole entry): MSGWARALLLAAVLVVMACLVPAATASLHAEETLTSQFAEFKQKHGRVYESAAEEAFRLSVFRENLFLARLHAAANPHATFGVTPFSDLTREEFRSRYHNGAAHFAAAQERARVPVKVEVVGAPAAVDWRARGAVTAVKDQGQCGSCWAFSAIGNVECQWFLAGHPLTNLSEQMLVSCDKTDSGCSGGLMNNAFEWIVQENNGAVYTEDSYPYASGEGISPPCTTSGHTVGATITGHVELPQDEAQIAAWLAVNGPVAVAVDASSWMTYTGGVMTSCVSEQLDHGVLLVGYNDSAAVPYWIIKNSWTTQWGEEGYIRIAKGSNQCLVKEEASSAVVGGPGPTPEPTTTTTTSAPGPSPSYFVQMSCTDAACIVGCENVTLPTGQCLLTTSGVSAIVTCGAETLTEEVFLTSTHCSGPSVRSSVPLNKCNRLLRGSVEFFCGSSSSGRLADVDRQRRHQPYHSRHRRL

Cruzipain (Trypanosoma cruzi), sequence (P25779 123-467 limits assumed): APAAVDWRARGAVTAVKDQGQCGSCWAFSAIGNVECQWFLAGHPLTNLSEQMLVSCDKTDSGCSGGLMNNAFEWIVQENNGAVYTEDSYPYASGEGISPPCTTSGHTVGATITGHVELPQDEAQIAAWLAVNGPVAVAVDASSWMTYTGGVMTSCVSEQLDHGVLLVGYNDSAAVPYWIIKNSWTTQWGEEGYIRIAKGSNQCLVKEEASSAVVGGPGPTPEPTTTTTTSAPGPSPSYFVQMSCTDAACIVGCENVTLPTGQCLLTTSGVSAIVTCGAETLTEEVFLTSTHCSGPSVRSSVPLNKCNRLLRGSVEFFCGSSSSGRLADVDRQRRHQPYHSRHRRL

SMILES | IC50 [1] [µM] | Activity [2] | IC50 [3] [µM] | inhibition [4] [%] | CC50 at 24 h [5] [µg/mL] | IC50 [6] [µM]
O=C(Cn1ccnc1[N+](=O)[O-])NCc1ccccc1 [BENZNIDAZOLE] | 7.5 | Active | 11.3 | – | – | –
COc1cc(/C=N/NC(=O)c2nc(-c3ccc(O)cc3)no2)ccc1O | – | – | – | 25 | > 100 | –
COc1cc(/C=N/NC(=O)c2nc(-c3ccc(Cl)cc3)no2)ccc1O | – | – | – | 92 | > 100 | 0.04
COc1cc(/C=N/NC(=O)c2nc(-c3ccc(C)cc3)no2)ccc1O | – | – | – | 14 | > 100 | –
COc1ccc(-c2noc(C(=O)N/N=C/c3ccc4c(c3)OCO4)n2)cc1 | – | – | – | 44 | > 100 | –
COc1cc(/C=N/NC(=O)c2nc(-c3ccc([N+](=O)[O-])cc3)no2)ccc1O | – | – | – | 47 | > 100 | –
COc1cc(/C=N/NC(=O)c2nc(-c3ccccc3)no2)ccc1O | – | – | – | 47 | > 100 | –
COc1ccc(-c2noc(C(=O)N/N=C/c3ccc(O)c(OC)c3)n2)cc1 | – | – | – | 35 | > 100 | –
O=C(N/N=C/c1ccc2c(c1)OCO2)c1nc(-c2ccccc2)no1 | – | – | – | 32 | > 100 | –
